Results: article PMC10325900, “A conserved motif in the disordered linker of human MLH1 is vital for DNA mismatch repair and its function is diminished by a cancer family mutation” (Nucleic Acids Research, 2023)
pKd: −log10 of the molar value. No end group written: not given here.

Assays:
MLH1-PMS2 = assay: Comparison of MMR restoration with theoretical binding curves of peptide to protein; set-up: species or system human; conditions: theoretical binding curves at 11.1 nM MLH1; not a direct binding measurement; read-out: KD whose theoretical fraction of peptide binding to a protein corresponds to the degree of MMR restoration
Experimental: Figure 4. Reaction of DNA mismatch repair to addition of ConMot peptide. (A) Nuclear extract of MLH1-proficient HEK293 cells was used for performing the DNA mismatch repair reaction. Four reactions were undertaken, with two reactions supplemented with either 7.5 μM or 75 μM ConMot-32 peptide. A negative control reaction was performed by omitting the 37°C repair incubation. (B) MMR reactions were performed with nuclear extract of MLH1-deficient HEK293T cells supplemented with extract of cells transfected either with wildtype MLH1-PMS2 (positive control) or with MLH1-ΔConMot-PMS2. […] (C) The concentration-dependence of the MMR-activating effect of the ConMot-32 peptide observed in (B) was measured over a concentration range from 1–75 μM. […] Into this diagram, the average MMR activities (and standard deviations) measured in >3 of the experiment exemplarily shown in C were introduced as bars at ConMot-32 peptide concentrations of 1, 2.5, 7.5, 18 and 75 μM.
We investigated the effect of the ConMot peptide more closely by titrating the required peptide concentrations for activation. We determined that the mismatch repair reactions performed in this study contained approximately 280 fmol MLH1 (Supplementary Figure S4A and B), which is in good agreement with previous quantifications of MLH1-PMS2 in cells and extracts ([96]). […]
B. Immunoblot band intensities were determined. […]

[1] = 33 μM peptide, 20 mM Na-phosphate pH 7.2, 25–95°C, detection at 222 nm
Experimental: For the CD analysis, 33 μM ConMot peptide was used in 20 mM Na-phosphate buffer pH 7.2, 20°C. Three scans were performed with 190–300 nm wavelength, using a 1 mm light path. A blank was measured with buffer. For the melting analysis, 33 μM ConMot peptide was used in 20 mM Na-phosphate buffer pH 7.2. Detection was at 222 nm, temperature was scanned from 25–95°C. A blank with buffer only was subtracted.

[2] = Circular dichroism (CD) of ConMot peptide; type: physicochemical; conditions: 33 μM peptide, 20 mM Na-phosphate pH 7.2, 20°C, 190–300 nm, three scans, 1 mm light path
Experimental: A blank was measured with buffer. […] A blank with buffer only was subtracted.

SGSSDKVYAHQMVRTDSREQKLDAFLQPLSKP [ConMot-32]
pKd (MLH1-PMS2): ~5.12
secondary structure formation by melting analysis [1]: Neither investigation provided evidence for secondary structure formation
secondary structure formation by circular dichroism [2]: Neither investigation provided evidence for secondary structure formation
